Measured values taken from BindingDB's records for doi:10.1038/nchembio.421 (Novartis Institutes for BioMedical Research, 2010).
pIC50: −log10 of the molar value.

Molecular target: T1, Farnesyl pyrophosphate synthase (Homo sapiens, UniProt P14324)
T1 sequence (P14324 whole entry): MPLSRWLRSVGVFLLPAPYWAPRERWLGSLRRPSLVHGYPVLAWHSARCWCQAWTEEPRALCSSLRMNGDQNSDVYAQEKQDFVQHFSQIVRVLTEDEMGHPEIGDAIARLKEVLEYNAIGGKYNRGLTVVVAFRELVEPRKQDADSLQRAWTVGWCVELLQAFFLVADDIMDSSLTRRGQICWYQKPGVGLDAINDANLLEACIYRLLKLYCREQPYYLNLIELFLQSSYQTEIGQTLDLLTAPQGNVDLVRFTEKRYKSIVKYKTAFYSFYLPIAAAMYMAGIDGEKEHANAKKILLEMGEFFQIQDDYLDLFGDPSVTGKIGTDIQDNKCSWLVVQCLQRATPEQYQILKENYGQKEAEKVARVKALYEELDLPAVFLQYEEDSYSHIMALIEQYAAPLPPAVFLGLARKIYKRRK
Assay: Biophysical assay
Conditions: pH 7.4; 23 °C
Source text: A biophysical assay using NMR spectroscopy to identify fragments with higher binding affinity to human recombinant FPPS.

Row | pIC50 | Compound
1 | 4.10 | CC(C(=O)O)c1cc2c(Cl)cccc2s1 (centres undefined) [2-(4-Chlorobenzo[b]thiophen-2-yl)propanoic acid, 5]
2 | 4.92 | O=C(O)Cc1sc2ccccc2c1Cl [2-(3-Chlorobenzo[b]thiophen-2-yl)acetic acid, 6]
3 | < 3.30 | Cc1c(CC(=O)O)sc2ccc(Cl)cc12 [CID68686]

Row | Compound | pIC50
4 | O=C(O)c1cc(Cn2c(C(=O)O)cc3ccc4ccccc4c32)on1 [5-((2-Carboxy-1H-benzo[g]indol-1-yl)methyl)isoxazole-3-carboxylic acid, 12] | 7.10
